The target of assay [1] is ligand binding domain of human FXR (Homo sapiens (Human), UniProt Q96RI1). The assay can be described thus: FXR ligand binding assay (LanthaScreen TR-FRET, SRC2-2 peptide recruitment). The note with it: for pEC50: -log EC50, concentration required to produce 50% activation; for Emax: read-out: % Efficacy.
In assay [2] the target is human Farnesoid X receptor ligand-binding domain/Gal4 DNA binding domain chimera (Homo sapiens (Human), UniProt Q96RI1). Description: Cell-based assay of FXR activation (FXR-UAS-bla HEK 293T beta-lactamase reporter). The note with it: cellular FXR beta-lactamase reporter assay; for Emax: HEK-293T, extent of activation relative to GW4064, read-out: % Efficacy; for EC50: FXR-UAS-bla HEK 293T cells, 16 h, pEC50 = -log EC50. The gist of the method: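 Readout is cleavage of the CCF4 FRET substrate (409 nm excitation, blue 447 nm signal) by beta-lactamase, expressed under UAS control after a Gal4–human FXR LBD chimera is activated in HEK 293T cells. Compounds were added as 3-fold dilutions for 16 h at 37 °C in 2% charcoal-stripped FBS medium. Curves were fit to a 3-parameter logistic equation to give pEC50, with % activation relative to GW4064.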
(In general: Reporter assays use an easily measured gene product as a stand-in for the process of interest.)

[3] abbreviates: extent of activation relative to GW4064.

The values that follow come from US10793568B2, “Hormone receptor modulators for treating metabolic conditions and disorders” (ARDELYX, INC., priority 2016, dated 2020).

What is called pEC50 is the negative decadic logarithm of the EC50, by convention in mol/L. High values mean a low EC50, low ones a high EC50. Usually EC50 stands for the midpoint of the concentration-response curve.

Where two headings read alike, the source gives them in different places.

Chain of human Farnesoid X receptor ligand-binding domain/Gal4 DNA binding domain chimera (Q96RI1 262-486, change not shown): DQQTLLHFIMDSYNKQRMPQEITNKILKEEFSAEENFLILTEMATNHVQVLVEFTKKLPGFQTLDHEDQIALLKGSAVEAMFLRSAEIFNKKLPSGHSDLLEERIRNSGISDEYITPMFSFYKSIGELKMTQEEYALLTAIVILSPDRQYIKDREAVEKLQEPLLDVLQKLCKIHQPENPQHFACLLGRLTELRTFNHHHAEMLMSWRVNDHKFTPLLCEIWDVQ
Chain of human Farnesoid X receptor ligand-binding domain/Gal4 DNA binding domain chimera (P04386 1-147 partner): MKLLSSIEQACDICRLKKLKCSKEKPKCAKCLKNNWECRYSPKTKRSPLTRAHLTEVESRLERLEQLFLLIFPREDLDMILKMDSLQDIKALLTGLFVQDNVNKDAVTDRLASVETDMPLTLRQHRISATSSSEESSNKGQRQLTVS
Chain of ligand binding domain of human FXR (Q96RI1 262-486): as the sequence (Q96RI1 262-486, change not shown) above

In assay [1], `O=C(O)c1ccc(N2C[C@@H]3C[C@H]2C[C@H]3OCc2c(-c3c(F)cccc3Cl)noc2C2CC2)cc1` [Compound I-118, 4-[(1S,4S,5R)-5-{[3-(2-chloro-6-fluorophenyl)-5-cyclopropyl-1,2-oxazol-4-yl]methoxy}-2-azabicyclo[2.2.1]heptan-2-yl]benzoic Acid] came in with a pEC50 of 8.6. For the same compound, the Emax was determined as 145% in assay [1] (setting [3]) and 108% in assay [2]. Moreover, in assay [2], the 50% effective concentration (EC50) was 7.94 nM.
`O=C(O)c1ccc(N2C[C@@H]3C[C@H]2C[C@H]3OCc2c(-c3c(F)cccc3Cl)noc2C2CC2)c(F)c1` [Compound I-119, 4-[(1S,4S,5R)-5-{[3-(2-chloro-6-fluorophenyl)-5-cyclopropyl-1,2-oxazol-4-yl]methoxy}-2-azabicyclo[2.2.1]heptan-2-yl]-3-fluorobenzoic Acid] yielded a pEC50 in assay [1] of 8.7. In assay [1] (setting [3]), the Emax was 145%. Moreover, in assay [2], the Emax was 104% and it took 0.631 nM to reach a half-maximal effect (EC50).
`O=C(O)c1ccc(N2C[C@@H]3C[C@H]2C[C@H]3OCc2c(-c3ccccc3C(F)(F)F)noc2C2CC2)cc1` [Compound I-120, 4-[(1S,4S,5R)-5-({5-cyclopropyl-3-[2-(trifluoromethyl)phenyl]-1,2-oxazol-4-yl}methoxy)-2-azabicyclo[2.2.1]heptan-2-yl]benzoic Acid] gave a pEC50 in assay [1] of 8. Also, the Emax in assay [1] (setting [3]) came out at 188%; in assay [2], 112%. Further, in assay [2], the EC50 is 2 nM.
Regarding `O=C(O)c1ccc(N2C[C@@H]3C[C@H]2C[C@H]3OCc2c(-c3ccccc3C(F)(F)F)noc2C2CC2)c(F)c1` [Compound I-121, 4-[(1S,4S,5R)-5-({5-cyclopropyl-3-[2-(trifluoromethyl)phenyl]-1,2-oxazol-4-yl}methoxy)-2-azabicyclo[2.2.1]heptan-2-yl]-3-fluorobenzoic Acid], the Emax in assay [1] (setting [3]) came to 174%. In assay [2], the Emax worked out at 107% and the EC50 was 1.26 nM.
`O=C(O)c1ccc(N2C[C@@H]3C[C@H]2C[C@H]3OCc2c(-c3c(Cl)cccc3Cl)noc2C2(F)CC2)cc1F` [Compound I-122, 4-[(1S,4S,5R)-5-{[3-(2,6-dichlorophenyl)-5-(1-fluorocyclopropyl)-1,2-oxazol-4-yl]methoxy}-2-azabicyclo[2.2.1]heptan-2-yl]-2-fluorobenzoic Acid] gave a pEC50 in assay [1] of 9.6. In addition, the Emax in assay [1] (setting [3]) is 137%. In addition, in assay [2], the Emax is 102% and the EC50 was 1.58 nM.
Take `N#Cc1cc(N2C[C@@H]3C[C@H]2C[C@H]3OCc2c(-c3c(Cl)cccc3Cl)noc2C2(F)CC2)ccc1C(=O)O` [Compound I-123, 2-cyano-4-[(1S,4S,5R)-5-{[3-(2,6-dichlorophenyl)-5-(1-fluorocyclopropyl)-1,2-oxazol-4-yl]methoxy}-2-azabicyclo[2.2.1]heptan-2-yl]benzoic Acid]: in assay [1], the pEC50 is given as 8.6. Further, the values for the Emax in assay [1] (setting [3]) and in assay [2] were 160% and 99%, respectively. Moreover, the half-maximal effective concentration (EC50) in assay [2] is 0.501 nM.
With `Cc1cccc(Cl)c1-c1noc(C2(F)CC2)c1CO[C@@H]1C[C@@H]2C[C@H]1CN2c1ccc(C(=O)O)c(F)c1` [Compound I-124, 4-[(1S,4S,5R)-5-{[3-(2-chloro-6-methylphenyl)-5-(1-fluorocyclopropyl)-1,2-oxazol-4-yl]methoxy}-2-azabicyclo[2.2.1]heptan-2-yl]-2-fluorobenzoic Acid], in assay [1], the negative-log EC50 (pEC50) is 9.7 and the Emax stood at 143%. Besides, in assay [2], the Emax amounted to 105% and the response was half-maximal at 3.98 nM (EC50).
As to `O=C(O)c1ccc(N2C[C@@H]3C[C@H]2C[C@H]3OCc2c(C3CCC4(CC3)CC4)noc2C2CC2)cc1` [Compound I-125, 4-[(1S,4S,5R)-5-[(5-cyclopropyl-3-{spiro[2.5]octan-6-yl}-1,2-oxazol-4-yl)methoxy]-2-azabicyclo[2.2.1]heptan-2-yl]benzoic Acid], the Emax in assay [1] was found to be 92%. Moreover, in assay [2], the Emax came to 106% and the response was half-maximal at 251 nM (EC50).
`O=C(O)c1ccc(N2C[C@@H]3C[C@H]2C[C@H]3OCc2c(C3CCC4(CC3)CC4)noc2C2CC2)c(F)c1` [Compound I-126, 4-[(1S,4S,5R)-5-[(5-cyclopropyl-3-{spiro[2.5]octan-6-yl}-1,2-oxazol-4-yl)methoxy]-2-azabicyclo[2.2.1]heptan-2-yl]-3-fluorobenzoic Acid]: the Emax in assay [1] is 114%. Moreover, in assay [2], the Emax was determined as 106% and the concentration giving a half-maximal response (EC50) was 39.8 nM.
Consider `O=C(O)c1ccc([N+]2([O-])C[C@@H]3C[C@H]2C[C@H]3OCc2c(-c3c(Cl)cccc3Cl)noc2C2CC2)cc1` (stereo partly drawn) [Compound I-127, (1S,4S,5R)-2-(4-carboxyphenyl)-5-{[5-cyclopropyl-3-(2,6-dichlorophenyl)-1,2-oxazol-4-yl]methoxy}-2-azabicyclo[2.2.1]heptan-2-ium-2-olate], for which, in assay [1], the negative logarithm of the EC50 (pEC50) worked out at 9.3. The Emax in assay [1] (setting [3]) was 136%. In addition, in assay [2], the Emax was determined as 104% and the response was half-maximal at 2.51 nM (EC50).
For `O=C(O)c1ccc(N2C[C@@H]3C[C@H]2C[C@H]3OCc2c(-c3c(Cl)cccc3Cl)noc2C2CC2)cn1` [Compound I-128, 5-[(1S,4S,5R)-5-{[5-cyclopropyl-3-(2,6-dichlorophenyl)-1,2-oxazol-4-yl]methoxy}-2-azabicyclo[2.2.1]heptan-2-yl]pyridine-2-carboxylic Acid], the negative-log EC50 (pEC50) in assay [1] was 7.8. In addition, the results for the Emax in assay [1] (setting [3]) and in assay [2] were 110% and 93%, respectively. Further, it took 10 nM to reach a half-maximal effect in assay [2] (EC50).
As to `O=C(O)c1cnc(N2C[C@@H]3C[C@H]2C[C@H]3OCc2c(-c3c(Cl)cccc3Cl)noc2C2CC2)c(F)c1` [Compound I-129, 6-[(1S,4S,5R)-5-{[5-cyclopropyl-3-(2,6-dichlorophenyl)-1,2-oxazol-4-yl]methoxy}-2-azabicyclo[2.2.1]heptan-2-yl]-5-fluoropyridine-3-carboxylic Acid], the Emax is 152% in assay [1] (setting [3]) and 101% in assay [2]. The compound further showed a 50% effective concentration (EC50) in assay [2] of 3.98 nM.
The compound `O=C(O)c1cnc(N2C[C@@H]3C[C@H]2C[C@H]3OCc2c(-c3c(Cl)cccc3Cl)noc2C2(F)CC2)c(F)c1` [Compound I-130, 6-[(1S,4S,5R)-5-{[3-(2,6-dichlorophenyl)-5-(1-fluorocyclopropyl)-1,2-oxazol-4-yl]methoxy}-2-azabicyclo[2.2.1]heptan-2-yl]-5-fluoropyridine-3-carboxylic Acid] gave a pEC50 in assay [1] of 8. Moreover, the Emax in assay [1] (setting [3]) amounted to 152%. In addition, in assay [2], the Emax is 99% and a half-maximal response (EC50) required 7.94 nM.
As to `O=C(O)c1ccc(N2C[C@H]3C[C@@H]2C[C@@H]3OCc2c(-c3c(Cl)cccc3Cl)noc2C2CC2)c(F)c1` [Compound I-131, 4-[(1R,4R,5S)-5-{[5-cyclopropyl-3-(2,6-dichlorophenyl)-1,2-oxazol-4-yl]methoxy}-2-azabicyclo[2.2.1]heptan-2-yl]-3-fluorobenzoic Acid], the Emax in assay [1] stood at 108%. Besides, in assay [2], the Emax amounted to 94% and the response was half-maximal at 31.6 nM (EC50).
With `O=C(O)c1ccc(N2C[C@H]3C[C@@H]2C[C@@H]3OCc2c(-c3c(Cl)cccc3Cl)noc2C2CC2)cc1` [Compound I-132], in assay [1] (setting [3]), the Emax was found to be 98%. The compound further showed a half-maximal effective concentration (EC50) in assay [2] of less than 316 nM.
With `N#Cc1c(F)cc(N2C[C@@H]3C[C@H]2C[C@H]3OCc2c(-c3c(Cl)cccc3Cl)noc2C2CC2)cc1F` [Compound I-133, 4-[(1S,4S,5R)-5-{[5-cyclopropyl-3-(2,6-dichlorophenyl)-1,2-oxazol-4-yl]methoxy}-2-azabicyclo[2.2.1]heptan-2-yl]-2,6-difluorobenzonitrile], in assay [1], the pEC50 is 7.4. Moreover, the Emax in assay [1] (setting [3]) worked out at 79%. In assay [2], the Emax amounted to 106% and the EC50 was less than 39.8 nM.
Compound `Fc1cc(-c2nn[nH]n2)ccc1N1C[C@@H]2C[C@H]1C[C@H]2OCc1c(-c2c(Cl)cccc2Cl)noc1C1CC1` [Compound I-134, (1S,4S,5R)-5-{[5-cyclopropyl-3-(2,6-dichlorophenyl)-1,2-oxazol-4-yl]methoxy}-2-[2-fluoro-4-(2H-1,2,3,4-tetrazol-5-yl)phenyl]-2-azabicyclo[2.2.1]heptane] gave a negative logarithm of the EC50 (pEC50) in assay [1] of 8.2. In assay [1] (setting [3]), the Emax is 156%. In addition, in assay [2], the Emax was 104% and the half-maximal effective concentration (EC50) is 0.794 nM.
In turn, `O=C1NCc2cc(N3C[C@@H]4C[C@H]3C[C@H]4OCc3c(-c4c(Cl)cccc4Cl)noc3C3CC3)ccc21` [Compound I-135, 5-[(1S,4S,5R)-5-{[5-cyclopropyl-3-(2,6-dichlorophenyl)-1,2-oxazol-4-yl]methoxy}-2-azabicyclo[2.2.1]heptan-2-yl]-2,3-dihydro-1H-isoindol-1-one] yielded a pEC50 in assay [1] of 9.4. Further, the Emax in assay [1] (setting [3]) turned out to be 152%; in assay [2], 102%. Further, the EC50 in assay [2] is 1 nM.
Regarding `O=C1NCCc2cc(N3C[C@@H]4C[C@H]3C[C@H]4OCc3c(-c4c(Cl)cccc4Cl)noc3C3CC3)ccc21` [Compound I-136, 6-[(1S,4S,5R)-5-{[5-cyclopropyl-3-(2,6-dichlorophenyl)-1,2-oxazol-4-yl]methoxy}-2-azabicyclo[2.2.1]heptan-2-yl]-1,2,3,4-tetrahydroisoquinolin-1-one], in assay [1], the pEC50 is on record as 9 and the Emax came out at 154%. Further, in assay [2], the Emax turned out to be 114% and the EC50 is 3.98 nM.
With `O=c1[nH]c2cc(N3C[C@@H]4C[C@H]3C[C@H]4OCc3c(-c4c(Cl)cccc4Cl)noc3C3CC3)ccc2o1` [Compound I-140, 5-[(1S,4S,5R)-5-{[5-cyclopropyl-3-(2,6-dichlorophenyl)-1,2-oxazol-4-yl]methoxy}-2-azabicyclo[2.2.1]heptan-2-yl]-2,3-dihydro-1,3-benzoxazol-2-one], in assay [1], the negative logarithm of the EC50 (pEC50) is 9.1. Also, the Emax in assay [1] (setting [3]) was found to be 142%. In addition, in assay [2], the Emax was determined as 121% and the EC50 is 20 nM.
